Measurements from patent US20250040539A1, “COMPOSITION COMPRISING AN ANTIMICROBIAL AGENT AND A CARBOXAMIDE” (BASF SE, priority 2021, published 2025).

Test system: bacterial mix: Escherichia coli DSM 1576, Alcaligenes faecalis DSM 13644, Pseudomonas aeruginosa ATCC 15442, Staphylococcus aureus ATCC 6538, Burkholderia …
Assay: Preservative activity of a basic composition (10% PG in water, pH 7) with 4,4'-dichloro-2-hydroxydiphenyl ether (diclosan) against bacterial contamination (Example 2.2)
Format: cell-based
Details: day 7
Protocol: An aqueous composition of pH 7 comprising 10% by weight of propyleneglycol (PG) as organic solvent, 0.015% by weight of 4,4′-dichloro-2-hydroxydiphenyl ether (diclosan) as antimicrobial and 0.04 or 0.1% by weight of the amides listed in the below table was tested for its preserving activity against bacterial contamination (the weight percentages relate to the total weight of the composition). For this purpose, the samples were contaminated with a bacterial mix consisting of: • Escherichia coli DSM 1576 • Alcaligenes faecalis DSM 13644 • Pseudomonas aeruginosa ATCC 15442 • Staphylococcus aureus ATCC 6538 • Burkholderia cepacia DSM 7288 • Pseudomonas putida DSM 12735
The samples were inoculated with the bacterial mix at day 0 to obtain 10E+06 to 10E+07 CFU/ml inoculation in the test sample and stored at 25° C. for 7 days.
CFU was determined at day 7.
Any CFU value at day 7 (d7) obtained with a sample according to the invention containing diclosan and amide (10% PG+0.015% diclosan+Amide in water) lower than the respective value of the “comparative 3” example (10% by weight of propyleneglycol+0.015% by weight of 4,4′-dichloro-2-hydroxydiphenyl ether (diclosan) in water) indicates a better performance.

## CCCCCCCCCC(=O)N(C)C [n-Decanoyl-N,N-dimethylamide]
10% PG + 0.015% diclosan + 0.1% amide
  d7 [CFU/ml]: 43,000 CFU/ml
10% PG + 0.1% amide, no diclosan (Comparative 1b)
  d7 [CFU/ml]: >100,000 CFU/ml
